Experimental findings from US9840470B2, “Targeting GLI proteins in human cancer by small molecules” (The Regents of the University of California, priority 2013, dated 2017) are described below.

Series [1] is described as follows: Preliminary in vivo toxicity: leukocyte population and body weight after treatment. Set-up: species or system mouse. As to the method:
(§1) The administered compounds were tested in vivo in the mouse xenograft model bearing human cancer cells. Briefly, female athymic nude mice strain NCRNU-M (5-10 weeks old, 20-25 grams in weight; Taconic, Germantown, N.Y.) was maintained in pathogen-free conditions. Three human cancer cell lines: NSCLC A549, melanoma MelJuso, and mesothelioma MS-1 were used. Five or ten mice were used in each group and injected s.c. with 3×10^6 cancer cells in the dorsal area in a volume of 100 μl. After inoculation, human cancer cells were allowed to grow in mice for 10-13 days to become visible tumor nodules. Animals were then injected with a compound of the embodiments at a dose of 50 mg/kg body weight (1 mg/mouse per day). Vehicle alone was used as control. The compounds and controls were adjusted in 40 ul volume for i.p. injection in the abdomens of the mice. Injections were performed daily around the same time for 14 days. Tumors were allowed to grow for 1-2 additional weeks after completion of the compound treatments. Tumor size was measured every three to four days, and tumor volumes were calculated using width (x) and length (y) (x^2y/2, where x<y). Throughout this period, general toxicity of the treatments was also monitored by measuring body weight of the mice. Data was presented as mean values (±S.D.).
(§2) After the in vivo studies were completed, different organs were resected from mice. These organs included liver, lung, heart, kidney, intestines, ovary, brain, spleen, skin, and muscle. The specimens were fixed in 4% buffered formaldehyde, embedded in paraffin, sectioned, and histologically analyzed by hematoxylin and eosin (HE) staining. The HE stained slides were examined by a mouse pathologist for toxicity evidence from all the organs as compared with vehicle controls. In addition, leukocytes (WBC: white blood cell, NE: neutrophil, LY: lymphocyte, MO: monocyte, EO: eosinophil, BA: basophil) from each animal from all treatment groups were collected and leukocyte population was counted through a blood cell counter.
As preliminary in vivo toxicity study of Compounds 1, 2, 4, and 6, it was examined if there were changes of leukocyte population and loss of body weight in the mice after the treatment. At the completion of the in vivo studies as described herein, leukocytes (WBC: white blood cell, NE: neutrophil, LY: lymphocyte, MO: monocyte, EO: eosinophil, BA: basophil) from each animal from all treatment groups were collected and leukocyte population was counted through a blood cell counter. Body weights of control groups (n=10) and the treated group (n=10) were measured using a scale during the course of drug administration. […] In an additional toxicity study, effect of different doses of compounds 4 and 6 on the body weight of mice was examined. The compounds were i.p. injected in the abdomens at 3 different doses: 25, 50, and 100 mg/kg body weight to mice (3 mice per dosing group) for 6 consecutive days.

A further series relates to Wnt signaling pathway. Description: Quantitative RT-PCR of canonical Wnt pathway genes in xenograft tumors. The series is classed as in vivo, mouse. Particulars: Melanoma tumor, pooled tumor from two mice, compared to controls. As to the method: Total RNA was isolated using Qiagen RNeasy Mini Kit (Valencia, Calif.). Hybridization probes and primers (Table 1) were purchased from Applied Biosystems (ABI, Foster City, Calif.). cDNA synthesis and Taqman® PCR were performed according to the manufactures' protocols. The gene expression was assayed in triplicate in ABI 7300 Real-time PCR System. Samples were normalized to their housekeeping gene GAPDH and then calculated by using 2^−dct method.
To examine whether Compounds 1, 2, 4, and 6 suppressed tumor growth through inhibition of the Wnt signaling pathway in vivo, expression of the key components and direct target genes of the Wnt pathway (e.g. Wnt2, Axin2, EGFR, and Cyclin D1) were analyzed by quantitative real-time RT-PCR using total RNA isolated from the xenograft tumors. GAPDH served as a control. This RT-PCR analysis was performed using a “pooled” tumor from two randomly selected mice of each group with reasonable size tumors. […] The results are shown in FIG. 4, where C is control and V is vehicle.

Series [2] can be described thus: Histological (H&E) examination of mouse organs for toxicity. The following applies: i.p. two doses daily for 6 days; liver, spleen, kidney, heart. In kind it is in vivo.
From the text: as §2
To analyze toxicity of the Compounds 1, 2, 4, and 6 in vivo, each group (three mice) was i.p. injected with two doses of each Compound daily for 6 days, and then major mouse organs, such as liver, spleen, kidney, and heart were resected from the mice.

The subject of another series is NSCLC A549. In words: In vivo efficacy, mouse xenograft model (lung cancer A549). Particulars: 50 mg/kg i.p. daily for 14 days, then 50 mg/kg daily for 1x7 days; tumors weighed 43 days after inoculation. As to the method:
as §1, with “Tumors were allowed to grow for 1-2 additional weeks after completion of the compound treatments.” left out, “Data was presented as mean values (±S.D.).” left out
In vivo efficacy study of Compounds 1 and 4 in Mouse Xenograft Model (NSCLC A549) was examined. […] 43 days after the initial tumor inoculation, tumors were dissected from the mice of each group and their weights were measured using a scale. […]

The next series deals with human NSCLC cell lines. In words: Combination treatment with chemotherapies, MTS proliferation assay, lung cancer cells. In kind it is cell-based. Particulars: 72 hours, Combination Index. From the text:
Another assay for determining the number of viable cells in proliferation or cytotoxicity assays is the MTS assay, a colorimetric method. MTS assay reagents are commercially available (Promega Corp., Madison, Wis.). The reagent contains a tetrazolium compound [3-(4,5-dimethylthiazol-2-yl)-5-(3-carboxymethoxyphenyl)-2-(4-sulfophenyl)-2H-tetrazolium, inner salt; MTS] and an electron coupling reagent (phenazine ethosulfate; PES). PES has enhanced chemical stability, which allows it to be combined with MTS to form a stable solution. The MTS tetrazolium compound (Owen's reagent) is bioreduced by cells into a colored formazan product that is soluble in tissue culture medium. This conversion may be accomplished by NADPH or NADH produced by dehydrogenase enzymes in metabolically active cells. The quantity of formazan product as measured by the absorbance at 490 nm is directly proportional to the number of living cells in culture. Because the MTS formazan product is soluble in tissue culture medium, this assay requires fewer steps than procedures that use tetrazolium compounds such as MTT. The formazan product of MTT reduction is a crystalline precipitate that requires an additional step in the procedure to dissolve the crystals before recording absorbance readings at 570 nm.
Combination treatments of the Compounds with several chemotherapies: erlotinib (Tarceva®), PI3K inhibitor LY294002, TGFβ inhibitor SB431542, and pemetrexed (Alimta®) were performed in human NSCLC and MM cell lines (FIGS. 12-17). In all experiments, NSCLC and MM cell lines were treated with different doses of each compound or combination for 72 hours, and MTS assays were performed to determine the cell proliferations. Combination Index (CI), calculated by CalcuSyn software (Biosoft, Cambridge, UK), was applied to describe the effect of the combination effects of two compounds, where CI<1 indicates Synergism, CI=1 indicates Additive effects, and CI>1 indicates Antagonism. Student's t-tests were applied for statistical analysis.
For orientation: Tetrazolium dyes change colour on reduction, which living cells bring about.

Take `CCCC1C(C(=O)NCCCC(C)(C)CO)C(c2ccc(F)cc2)=NN1c1ccccc1` (stereo not drawn) [Compound 4, 3-(4-fluoro-phenyl)-1-phenyl-5-propyl-4,5-dihydro-1H-pyrazole-4-carboxylic acid (5-hydroxy-4,4-dimethyl-pentyl)-amide]: the “changes of leukocyte population” value in series [1] (at completion of the in vivo studies) was “No noticeable changes of leukocyte population”. The “loss of body weight” value in series [1] (during the course of drug administration) was “No noticeable changes of leukocyte population or loss of the body weight”. The “expression of the key indicator of the canonical Wnt activation” value with Wnt signaling pathway is listed as “significantly down-regulated”. Also, in series [2], the “toxicity in organs (H&E histology)” value is reported as “No noticeable toxicity”. The “tumor weight compared to the control group” value with NSCLC A549 is “decreased”. In addition, the “combination effect with erlotinib (Tarceva)” value in the series with human NSCLC cell lines was “synergy”.
